# Measurements published in patent publication US9365576B2, “Pyrrolopyrrolidinone compounds” (Novartis AG, priority 2012, dated 2016).
# pIC50: −log10 of the molar value.
# Molecular target: human MDM2 protein (amino acids 2-188) (Homo sapiens (Human), UniProt Q00987)
# Assay: TR-FRET assay, p53-MDM2 Assay 2 (modified)
# Format: binding
# Settings: not given
# Description: The inhibition of p53-MDM2 and p53-MDM4 interactions is measured by time resolved fluorescence energy transfer (TR-FRET). Fluorescence energy transfer (or Foerster resonance energy transfer) describes an energy transfer between donor and acceptor fluorescent molecules. For this assay, human MDM2 protein (amino acids 2-188) and human MDM4 protein (amino acids 2-185), tagged with a C-terminal biotin moiety, are used in combination with a Europium labeled streptavidin (Perkin Elmer, Inc., Waltham, Mass., USA) serving as the donor fluorophore. The p53 derived, Cy5 labeled peptide Cy5-[…] (p53 aa18-26) is the energy acceptor. Upon excitation of the donor molecule at 340 nm, binding interaction between MDM2 or MDM4 and the p53 peptide induces energy transfer and enhanced response at the acceptor emission wavelength at 665 nm. […] The ratiometric FRET assay readout is calculated from the raw data of the two distinct fluorescence signals measured in time resolved mode (fluorescence 665 nm/fluorescence 620 nm×1000).
# After addition of 1.25 nM MDM2-biotinylated or 2.5 nM MDM4-biotinylated (internal preparations), and 0.625 nM Europium labeled streptavidin (Perkin Elmer), the solution is pre-incubated for 15 minutes at room temperature, then 10 nM Cy5-p53 peptide (internal preparation) is added before an incubation at room temperature for 15 minutes prior to reading the plate. For measurement of samples, a Victor II microplate reader (Perkin Elmer) is used with the following settings: Excitation 340 nm, Emission Donor 620 nm and Emission Acceptor 665 nm. IC50 values are calculated by curve fitting using XLfit. If not specified, reagents are purchased from Sigma-Aldrich Chemie GmBH, Buchs, Switzerland.
# Sequence of human MDM2 protein (amino acids 2-188) (Q00987 2-188): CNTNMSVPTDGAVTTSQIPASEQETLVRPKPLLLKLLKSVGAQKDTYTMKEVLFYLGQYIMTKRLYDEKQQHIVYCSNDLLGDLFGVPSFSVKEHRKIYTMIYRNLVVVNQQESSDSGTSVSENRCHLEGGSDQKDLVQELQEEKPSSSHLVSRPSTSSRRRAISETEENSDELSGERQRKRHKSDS
row,Structure (SMILES),pIC50
1,"COc1ncccc1-c1cc2c(n1C(C)C)C(c1ccc(Cl)cc1)N(c1cc(Cl)ccc1C)C2=O (stereo not shown) [Example 12, 5-(5-Chloro-2-methyl-phenyl)-6-(4-chloro-phenyl)-1-isopropyl-2-(2-methoxy-pyridin-3-yl)-5,6-dihydro-1H-pyrrolo[3,4-b]pyrrol-4-one]",9.31

# Same assay, conditions: TR-FRET; 0.1 nM MDM2, 0.1 nM Europium labeled streptavidin, Tecan genios Pro reader; read-out: IC50 p53-MDM2 Assay 2
row,Structure (SMILES),pIC50
1,"COc1ccc(CO)cc1-c1cc2c(n1C(C)C)C(c1ccc(Cl)cc1C)N(c1cccc(Cl)c1F)C2=O (stereo not shown) [Example 4, 5-(3-Chloro-2-fluoro-phenyl)-6-(4-chloro-2-methyl-phenyl)-2-(5-hydroxymethyl-2-methoxy-phenyl)-1-isopropyl-5,6-dihydro-1H-pyrrolo[3,4-b]pyrrol-4-one]",9.54
2,"COc1ncccc1-c1cc2c(n1C(C)C)C(c1ccc(Cl)cc1C)N(c1cccc(Cl)c1F)C2=O (stereo not shown) [Example 5, 5-(3-Chloro-2-fluoro-phenyl)-6-(4-chloro-2-methyl-phenyl)-1-isopropyl-2-(2-methoxy-pyridin-3-yl)-5,6-dihydro-1H-pyrrolo[3,4-b]pyrrol-4-one]",8.77
3,"COc1ccncc1-c1cc2c(n1C(C)C)C(c1ccc(Cl)cc1C)N(c1cccc(Cl)c1F)C2=O (stereo not shown) [Example 6, 5-(3-Chloro-2-fluoro-phenyl)-6-(4-chloro-2-methyl-phenyl)-1-isopropyl-2-(4-methoxy-Pyridin-3-yl)-5,6-dihydro-1H-pyrrolo[3,4-b]pyrrol-4-one]",9.76
4,"CNC(=O)c1ccc(OC)c(-c2cc3c(n2C(C)C)[C@@H](c2ccc(Cl)cc2C)N(c2cccc(Cl)c2F)C3=O)c1 [Example 8, 3-[(R)-5-(3-Chloro-2-fluoro-phenyl)-6-(4-chloro-2-methyl-phenyl)-1-isopropyl-4-oxo-1,4,5,6-tetrahydro-pyrrolo[3,4-b]pyrrol-2-yl]-4-methoxy-N-methyl-benzamide]",7.31
5,"COc1ccc(CO)cc1-c1cc2c(n1C(C)C)C(c1ccc(Cl)cc1)N(c1cc(Cl)ccc1C)C2=O (stereo not shown) [Example 11, 5-(5-Chloro-2-methyl-phenyl)-6-(4-chloro-phenyl)-2-(5-hydroxymethyl-2-methoxy-phenyl)-1-isopropyl-5,6-dihydro-1H-pyrrolo[3,4-b]pyrrol-4-one]",9.95
6,"COc1ccncc1-c1cc2c(n1C(C)C)C(c1ccc(Cl)cc1)N(c1cc(Cl)ccc1C)C2=O (stereo not shown) [Example 13, 5-(5-Chloro-2-methyl-phenyl)-6-(4-chloro-phenyl)-1-isopropyl-2-(4-methoxy-pyridin-3-yl)-5,6-dihydro-1H-pyrrolo[3,4-b]pyrrol-4-one]",9.75
7,"COc1ncc(-c2cc3c(n2C(C)C)C(c2ccc(Cl)cc2)N(c2cc(Cl)ccc2C)C3=O)c(OC)n1 (stereo not shown) [Example 14, 5-(5-Chloro-2-methyl-phenyl)-6-(4-chloro-phenyl)-2-(2,4-dimethoxy-pyrimidin-5-yl)-1-isopropyl-5,6-dihydro-1H-pyrrolo[3,4-b]pyrrol-4-one]",10.17
8,"COc1ccc(C(=O)N(C)C)cc1-c1cc2c(n1C(C)C)C(c1ccc(Cl)cc1)N(c1cc(Cl)ccc1C)C2=O (stereo not shown) [Example 15, 3-[5-(5-Chloro-2-methyl-phenyl)-6-(4-chloro-phenyl)-1-isopropyl-4-oxo-1,4,5,6-tetrahydro-pyrrolo[3,4-b]pyrrol-2-yl]-4-methoxy-N,N-dimethyl-benzamide]",9.88
9,"COc1ncncc1-c1cc2c(n1C(C)C)C(c1ccc(Cl)cc1)N(c1cc(Cl)ccc1C)C2=O (stereo not shown) [Example 16, 5-(5-Chloro-2-methyl-phenyl)-6-(4-chloro-phenyl)-1-isopropyl-2-(4-methoxy-pyrimidin-5-yl)-5,6-dihydro-1H-pyrrolo[3,4-b]pyrrol-4-one]",9.51
10,"COc1ccc(C#N)cc1-c1cc2c(n1C(C)C)C(c1ccc(Cl)cc1)N(c1cc(Cl)ccc1C)C2=O (stereo not shown) [Example 17, 3-[5-(5-Chloro-2-methyl-phenyl)-6-(4-chloro-phenyl)-1-isopropyl-4-oxo-1,4,5,6-tetrahydro-pyrrolo[3,4-b]pyrrol-2-yl]-4-methoxy-benzonitrile]",9.55
11,"CNC(=O)c1ccc(OC)c(-c2cc3c(n2C(C)C)[C@H](c2ccc(Cl)cc2)N(c2cc(Cl)ccc2C)C3=O)c1 [Example 18, 3-[(S)-5-(5-Chloro-2-methyl-phenyl)-6-(4-chloro-phenyl)-1-isopropyl-4-oxo-1,4,5,6-tetrahydro-pyrrolo[3,4-b]pyrrol-2-yl]-4-methoxy-N-methyl-benzamide]",10.02
12,"CNC(=O)c1ccc(OC)c(-c2cc3c(n2C(C)C)[C@@H](c2ccc(Cl)cc2)N(c2cc(Cl)ccc2C)C3=O)c1 [Example 19, 3-[(R)-5-(5-Chloro-2-methyl-phenyl)-6-(4-chloro-phenyl)-1-isopropyl-4-oxo-1,4,5,6-tetrahydro-pyrrolo[3,4-b]pyrrol-2-yl]-4-methoxy-N-methyl-benzamide]",6.74
13,"COc1ccc(C(=O)N(C)C)cc1-c1cc2c(n1C(C)C)[C@H](c1ccc(Cl)cc1)N(c1cc(Cl)ccc1C)C2=O [Example 20, 3-[(S)-5-(5-Chloro-2-methyl-phenyl)-6-(4-chloro-phenyl)-1-isopropyl-4-oxo-1,4,5,6-tetrahydro-pyrrolo[3,4-b]pyrrol-2-yl]-4-methoxy-N,N-dimethyl-benzamide]",10.12
14,"COc1ccc(C(=O)N(C)C)cc1-c1cc2c(n1C(C)C)[C@@H](c1ccc(Cl)cc1)N(c1cc(Cl)ccc1C)C2=O [Example 21, 3-[(R)-5-(5-Chloro-2-methyl-phenyl)-6-(4-chloro-phenyl)-1-isopropyl-4-oxo-1,4,5,6-tetrahydro-pyrrolo[3,4-b]pyrrol-2-yl]-4-methoxy-N,N-dimethyl-benzamide]",6.21
15,"COc1ccc(-c2cc3c(n2C(C)C)C(c2ccc(Cl)cc2)N(c2cc(Cl)ccc2C)C3=O)c(OC)n1 (stereo not shown) [Example 22, 5-(5-Chloro-2-methyl-phenyl)-6-(4-chloro-phenyl)-2-(2,6-dimethoxy-pyridin-3-yl)-1-isopropyl-5,6-dihydro-1H-pyrrolo[3,4-b]pyrrol-4-one]",9.49
16,"COc1ncc(-c2cc3c(n2C(C)C)[C@H](c2ccc(Cl)cc2)N(c2cc(Cl)ccc2C)C3=O)c(OC)n1 [Example 23, (S)-5-(5-Chloro-2-methyl-phenyl)-6-(4-chloro-phenyl)-2-(2,4-dimethoxy-pyrimidin-5-yl)-1-isopropyl-5,6-dihydro-1H-pyrrolo[3,4-b]pyrrol-4-one]",10.19
17,"COc1ncc(-c2cc3c(n2C(C)C)[C@@H](c2ccc(Cl)cc2)N(c2cc(Cl)ccc2C)C3=O)c(OC)n1 [Example 24, (R)-5-(5-Chloro-2-methyl-phenyl)-6-(4-chloro-phenyl)-2-(2,4-dimethoxy-pyrimidin-5-yl)-1-isopropyl-5,6-dihydro-1H-pyrrolo[3,4-b]pyrrol-4-one]",7.53
18,"COc1nc(N)ncc1-c1cc2c(n1C(C)C)C(c1ccc(Cl)cc1)N(c1cc(Cl)ccc1C)C2=O (stereo not shown) [Example 25, 2-(2-Amino-4-methoxy-pyrimidin-5-yl)-5-(5-chloro-2-methyl-phenyl)-6-(4-chloro-phenyl)-1-isopropyl-5,6-dihydro-1H-pyrrolo[3,4-b]pyrrol-4-one]",9.58
19,"CNc1ncc(-c2cc3c(n2C(C)C)C(c2ccc(Cl)cc2)N(c2cc(Cl)ccc2C)C3=O)c(OC)n1 (stereo not shown) [Example 26, 5-(5-Chloro-2-methyl-phenyl)-6-(4-chloro-phenyl)-1-isopropyl-2-(4-methoxy-2-methylamino-pyrimidin-5-yl)-5,6-dihydro-1H-pyrrolo[3,4-b]pyrrol-4-one]",9.71
20,"COc1nc(N(C)C)ncc1-c1cc2c(n1C(C)C)C(c1ccc(Cl)cc1)N(c1cc(Cl)ccc1C)C2=O (stereo not shown) [Example 27, 5-(5-Chloro-2-methyl-phenyl)-6-(4-chloro-phenyl)-2-(2-dimethylamino-4-methoxy-pyrimidin-5-yl)-1-isopropyl-5,6-dihydro-1H-pyrrolo[3,4-b]pyrrol-4-one]",9.65
21,"COc1ccc(C(=O)N2CCOCC2)cc1-c1cc2c(n1C(C)C)C(c1ccc(Cl)cc1)N(c1cc(Cl)ccc1C)C2=O (stereo not shown) [Example 28, 5-(5-Chloro-2-methyl-phenyl)-6-(4-chloro-phenyl)-1-isopropyl-2-[2-methoxy-5-(morpholine-4-carbonyl)-phenyl]-5,6-dihydro-1H-pyrrolo[3,4-b]pyrrol-4-one]",9.97
22,"Cc1ccc(Cl)cc1N1C(=O)c2cc(-c3ccccc3O)n(C(C)C)c2C1c1ccc(Cl)cc1 (stereo not shown) [Example 29, 5-(5-Chloro-2-methyl-phenyl)-6-(4-chloro-phenyl)-2-(2-hydroxy-phenyl)-1-isopropyl-5,6-dihydro-1H-pyrrolo[3,4-b]pyrrol-4-one]",9.51
23,"COc1ccccc1-c1cc2c(n1C(C)C)C(c1ccc(Cl)cc1C)N(c1cc(Cl)ccc1C)C2=O (stereo not shown) [Example 30, 5-(5-Chloro-2-methyl-phenyl)-6-(4-chloro-2-methyl-phenyl)-1-isopropyl-2-(2-methoxy-phenyl)-5,6-dihydro-1H-pyrrolo[3,4-b]pyrrol-4-one]",9.42
24,"CNC(=O)c1ccc(OC)c(-c2cc3c(n2C(C)C)C(c2ccc(Cl)cc2C)N(c2cc(Cl)ccc2C)C3=O)c1 (stereo not shown) [Example 31, 3-[5-(5-Chloro-2-methyl-phenyl)-6-(4-chloro-2-methyl-phenyl)-1-isopropyl-4-oxo-1,4,5,6-tetrahydro-pyrrolo[3,4-b]pyrrol-2-yl]-4-methoxy-N-methyl-benzamide]",9.74
